We go through two molecules from patent publication US20210352900A1, “Method for Controlling PPO Resistant Weeds” (BASF SE, priority 2016, published 2021).

The assay relates to Amaranthus tuberculatus (AMATU, tall waterhemp), PPO resistant biotype 2 containing the ΔG210 mutation (w.3). It counts as in vivo. The settings on record: azafenidin: in comparison to sensitive biotypes.

Take `C#CCOc1cc(-n2nc3n(c2=O)CCCC3)c(Cl)cc1Cl` [azafenidin, reference compound]: the “activity on / control of resistant weeds containing the ΔG210 mutation (w.3), in words” value is given as “much weaker control”.

For `CCc1ccc(COc2ccc(-n3c(=O)cc(C(F)(F)F)n(C)c3=O)cc2)c(OC(C)C(=O)OC)c1` (centres unmarked) [(I).1, benzfendizone], the “activity on / control of resistant weeds containing the ΔG210 mutation (w.3), in words” value is reported as “very good activity”.
